Consider 31 compounds from patent US20240083857A1, “2-Methyl-Quinazolines” (Bayer Pharma Aktiengesellschaft, priority 2017, published 2024).

In experiment [1] the target is K-Ras^G12C : hSOS1 interaction (Homo sapiens, UniProt Q07889). Briefly: Biochemical assay 1: K-Ras^G12C interaction assay with hSOS1 (HTRF). Type of experiment: binding. Particulars: for pIC50: read-out: Assay 1 (KRAS-SOS Interaction) activity expressed as IC50.
The target of experiment [2] is human SOS1 (nucleotide exchange of K-Ras^G12C) (Homo sapiens, UniProt Q07889). Nature of the experiment: Biochemical assay 2: K-Ras^G12C activation assay by hSOS1 at high GTP concentration (HTRF). Particulars: high GTP; for pIC50: read-out: Assay 2 (KRAS-Activation by SOS high GTP) activity expressed as IC50.

pIC50: −log10 of the molar value.

Regarding `COc1cc2nc(C)nc(NC(C)c3cccc(-c4nn[nH]n4)c3)c2cc1OC` (centres unmarked) [Example 216, 6,7-dimethoxy-2-methyl-N-{1-[3-(2H-tetrazol-5-yl)phenyl]ethyl}quinazolin-4-amine], the results for the pIC50 in experiment [1] and in experiment [2] were 5.18 and 4.77, respectively.
The matching figures for `COc1cc2nc(C)nc(NC(C)c3ccc(-c4ccccc4CN4CCC(C(N)=O)CC4)s3)c2cc1OC` (centres unmarked) [Example 179, 1-[2-(5-{1-[(6,7-dimethoxy-2-methylquinazolin-4-yl)amino]ethyl}thiophen-2-yl)benzyl]piperidine-4-carboxamide]: 7.04 and 6.61.
In the same order, the values of `COc1cc2nc(C)nc(N[C@H](C)c3ccc(S(C)(=O)=O)cc3)c2cc1OC` [Example 188, 6,7-dimethoxy-2-methyl-N-{(1R)-1-[4-(methylsulfonyl)phenyl]ethyl}quinazolin-4-amine] are 4.80 and 4.78.
The matching figures for `COc1cc2nc(C)nc(NC(C)c3ccc(-c4cc[nH]n4)s3)c2cc1OC` (centres unmarked) [Example 222, 6,7-dimethoxy-2-methyl-N-{1-[5-(1H-pyrazol-3-yl)thiophen-2-yl]ethyl}quinazolin-4-amine]: 5.41 and 5.35.
On to `COc1cc2nc(C)nc(NC(C)c3csc(-c4ccc(F)cc4CN)c3)c2cc1OC` (centres unmarked) [Example 255, N-[1-{5-[2-(aminomethyl)-4-fluorophenyl]thiophen-3-yl}ethyl]-6,7-dimethoxy-2-methylquinazolin-4-amine], for which the results for the pIC50 in experiment [1] and in experiment [2] were 6.61 and 6.50, respectively.
With `COc1cc2nc(C)nc(N[C@H](C)c3ccc(-c4ccccc4)cc3)c2cc1OC` [Example 196, N-[(1R)-1-(biphenyl-4-yl)ethyl]-6,7-dimethoxy-2-methylquinazolin-4-amine], the pIC50 was 5.62 in experiment [1] and 5.96 in experiment [2].
For the compound `COc1cc2nc(C)nc(N[C@H](C)c3cccc(-c4cnn(CCN5CCCC5)c4)c3)c2cc1OC` [Example 257, 6,7-dimethoxy-2-methyl-N-[(1R)-1-(3-{1-[2-(pyrrolidin-1-yl)ethyl]-1H-pyrazol-4-yl}phenyl)ethyl]quinazolin-4-amine], the pIC50 in experiment [1] was 6.44; in experiment [2], 6.12.
In the same order, the values of `COc1cc2nc(C)nc(NC(C)c3ccc(-c4cnn(C5CCCC5)c4)s3)c2cc1OC` (centres unmarked) [Example 221, N-{1-[5-(1-cyclopentyl-1H-pyrazol-4-yl)thiophen-2-yl]ethyl}-6,7-dimethoxy-2-methylquinazolin-4-amine] are 5.51 and 5.33.
The matching figures for `COc1cc2nc(C)nc(NC(C)c3ccc(-c4ccccc4CN4CCCC4)s3)c2cc1OC` (centres unmarked) [Example 184, 6,7-dimethoxy-2-methyl-N-[1-{5-[2-(pyrrolidin-1-ylmethyl)phenyl]thiophen-2-yl}ethyl]quinazolin-4-amine]: 7.38 and 6.97.
`COc1cc2nc(C)nc(NC(C)c3cc(F)cc4[nH]ncc34)c2cc1OC` (centres unmarked) [Example 6, N-[1-(6-fluoro-1H-indazol-4-yl)ethyl]-6,7-dimethoxy-2-methylquinazolin-4-amine]: the pIC50 was 5.64 in experiment [1] and 5.73 in experiment [2].
On to `COc1cc2nc(C)nc(NC(C)c3csc(-c4cnn(CCN5CCCC5)c4)c3)c2cc1OC` (centres unmarked) [Example 254, 6,7-dimethoxy-2-methyl-N-[1-(5-{1-[2-(pyrrolidin-1-yl)ethyl]-1H-pyrazol-4-yl}thiophen-3-yl)ethyl]quinazolin-4-amine], for which the values for the pIC50 in experiment [1] and in experiment [2] were 6.09 and 5.80, respectively.
As to `COc1cc2nc(C)nc(NC(C)c3cc4cccc(O)c4o3)c2cc1OC` (centres unmarked) [Example 28, 2-{-[(6,7-dimethoxy-2-methyquinazolin-4-yl)amino]ethyl}-1-benzofuran-7-ol], the inhibition at 20 µM in experiment [1] (read-out: Assay 1 (KRAS-SOS Interaction) activity expressed as % inhibition at 20 μM) was determined as 40%; in experiment [2] (read-out: Assay 2 (KRAS-Activation by SOS high GTP) activity expressed as % inhibition at 20 μM, at 20 μM), 8%.
As to `COc1cc2nc(C)nc(N[C@H](C)c3cccc(C)c3)c2cc1OC` [Example 190, 6,7-dimethoxy-2-methyl-N-[(1R)-1-(3-methylphenyl)ethyl]quinazolin-4-amine], the figures for the pIC50 in experiment [1] and in experiment [2] were 6.76 and 6.82, respectively.
As to `COc1cc2nc(C)nc(NC(C)c3ccc(-c4ccccc4CN)s3)c2cc1OC` (centres unmarked) [Example 252, N-[1-{5-[2-(aminomethyl)phenyl]thiophen-2-yl}ethyl]-6,7-dimethoxy-2-methylquinazolin-4-amine], the figures for the pIC50 in experiment [1] and in experiment [2] were 7.10 and 7.13, respectively.
The matching figures for `COc1cc2nc(C)nc(NC(C)c3ccc4nsnc4c3)c2cc1OC` (centres unmarked) [Example 229, N-[1-(2,1,3-benzothiadiazol-5-yl)ethyl]-6,7-dimethoxy-2-methylquinazolin-4-amine]: 5.16 and 5.11.
The matching figures for `COc1cc2nc(C)nc(N[C@H](C)c3cccc(C#N)c3)c2cc1OC` [Example 194, 3-{(1R)-1-[(6,7-dimethoxy-2-methylquinazolin-4-yl)amino]ethyl}benzonitrile]: 6.31 and 6.23.
In the same order, the values of `COc1cc2nc(C)nc(N[C@H](C)c3ccc(Br)cc3)c2cc1OC` [Example 187, N-[(1R)-1-(4-bromophenyl)ethyl]-6,7-dimethoxy-2-methylquinazolin-4-amine] are 6.32 and 6.25.
Take `COc1cc2nc(C)nc(NC(C)c3cccc4nn(C)cc34)c2cc1OC` (centres unmarked) [Example 9, 6,7-dimethoxy-2-methyl-N-[1-(2-methyl-2H-indazol-4-yl)ethyl]quinazolin-4-amine]: the pIC50 in experiment [1] was 5.82; in experiment [2], 5.86.
Regarding `COc1cc2nc(C)nc(NC(C)c3ccc(-c4ccccc4C#N)s3)c2cc1OC` (centres unmarked) [Example 245, 2-(5-{1-[(6,7-dimethoxy-2-methylquinazolin-4-yl)amino]ethyl}thiophen-2-yl)benzonitrile], the pIC50 was 6.23 in experiment [1] and 6.05 in experiment [2].
In the same order, the values of `COc1cc2nc(C)nc(N[C@H](C)c3ccc(C(N)=O)cc3)c2cc1OC` [Example 192, 4-{(1R)-1-[(6,7-dimethoxy-2-methylquinazolin-4-yl)amino]ethyl}benzamide] are 5.34 and 5.39.
On to `COc1cc2nc(C)nc(N[C@H](C)c3cccc(-c4ccccc4)c3)c2cc1OC` [Example 193, N-[(1R)-1-(biphenyl-3-yl)ethyl]-6,7-dimethoxy-2-methylquinazolin-4-amine], for which the pIC50 in experiment [1] is 6.38; in experiment [2], 6.39.
The matching figures for `COc1cc2nc(C)nc(NC(C)c3cccc(Oc4ccccc4)c3)c2cc1OC` (single isomer, unassigned; enantiomer 1) [Example 228, 6,7-dimethoxy-2-methyl-N-[1-(3-phenoxyphenyl)ethyl]quinazolin-4-amine, Enantiomer 1]: 6.24 and 6.19.
In the same order, the values of `COc1cc2nc(C)nc(NC(C)c3ccc(-c4cccc(C(N)=O)c4)s3)c2cc1OC` (centres unmarked) [Example 241, 3-(5-{1-[(6,7-dimethoxy-2-methylquinazolin-4-yl)amino]ethyl}thiophen-2-yl)benzamide] are 5.95 and 5.84.
As for `COc1cc2nc(C)nc(N[C@H](C)c3cccc(C4=CCN(C)CC4)c3)c2cc1OC` [Example 202, 6,7-dimethoxy-2-methyl-N-{(1R)-1-[3-(1-methyl-1,2,3,6-tetrahydropyridin-4-yl)phenyl]ethyl}quinazolin-4-amine], the pIC50 in experiment [1] was 5.85; in experiment [2] it was 6.01.
In the same order, the values of `COc1cc2nc(C)nc(N[C@H](C)c3cccc(C4CC4)c3)c2cc1OC` [Example 204, N-[(1R)-1-(3-cyclopropylphenyl)ethyl]-6,7-dimethoxy-2-methylquinazolin-4-amine] are 6.64 and 6.58.
As for `COc1cc2nc(C)nc(NC(C)c3ccc(-c4cnn(CC(N)=O)c4)s3)c2cc1OC` (centres unmarked) [Example 249, 2-[4-(5-{1-[(6,7-dimethoxy-2-methylquinazolin-4-yl)amino]ethyl}thiophen-2-yl)-1H-pyrazol-1-yl]acetamide], the pIC50 is 5.21 in experiment [1] and 5.27 in experiment [2].
In the same order, the values of `COc1cc2nc(C)nc(NC(C)c3ccc(-c4ccccc4CN4CCC(F)(F)C4)s3)c2cc1OC` (centres unmarked) [Example 223, N-[1-(5-{2-[(3,3-difluoropyrrolidin-1-yl)methyl]phenyl}thiophen-2-yl)ethyl]-6,7-dimethoxy-2-methylquinazolin-4-amine] are 5.68 and 5.25.
For the compound `COC(=O)c1cc2c(C(C)Nc3nc(C)nc4cc(OC)c(OC)cc34)cccc2s1` (centres unmarked) [Example 3, methyl 4-{1-[(6,7-dimethoxy-2-methylquinazolin-4-yl)amino]ethyl}-1-benzothiophene-2-carboxylate], the values for the pIC50 in experiment [1] and in experiment [2] were 6.95 and 6.94, respectively.
The matching figures for `COc1cc2nc(C)nc(NC(C)c3ccc(-c4ccc(F)c5ccccc45)s3)c2cc1OC` (centres unmarked) [Example 233, N-{1-[5-(4-fluoronaphthalen-1-yl)thiophen-2-yl]ethyl}-6,7-dimethoxy-2-methylquinazolin-4-amine]: 4.98 and 5.70.
In the same order, the values of `COc1cc2nc(C)nc(NC(C)c3ccc(-c4ccccc4N)s3)c2cc1OC` (centres unmarked) [Example 243, N-{1-[5-(2-aminophenyl)thiophen-2-yl]ethyl}-6,7-dimethoxy-2-methylquinazolin-4-amine] are 6.60 and 6.49.
In the same order, the values of `COc1cc2nc(C)nc(N[C@H](C)c3ccc(C4CC4)cc3)c2cc1OC` [Example 197, N-[(1R)-1-(4-cyclopropylphenyl)ethyl]-6,7-dimethoxy-2-methylquinazolin-4-amine] are 6.57 and 6.52.
